{
  "source": "patent US20240131032A1",
  "about": "“AN ACTIVITY-GUIDED MAP OF ELECTROPHILE-CYSTEINE INTERACTIONS IN PRIMARY HUMAN IMMUNE CELLS” (The Scripps Research Institute, priority 2019, published 2024)",
  "key": {"[1]": {"test_system": "NuRD complex members (MBD2, MBD3, GATAD2B)", "experiment": "Cysteine reactivity profiles of NuRD complex members in treated T cells", "format": "binding, human", "settings": "3 h treatment", "experimental": "(§1) FIG. 7B is a scatter plot representation of protein abundance changes caused by BPK-25 (10 μM, 24 h) in two independent replicate experiments, with decreases in NuRD complex components highlighted in red. FIG. 7C is a heatmap of top proteins with decreased abundance in BPK-25-treated T cells showing that the subset of these proteins in the NuRD complex (asterisks) were largely unaltered by other active compounds and blocked in their degradation by co-treatment with the proteasome inhibitor MG132. […] FIG. 7E is a bar graph […] showing time-dependent reductions in NuRD complex members in human T cells treated with BPK-25 (10 μM). Left, representative western blots. Right, quantification of changes in protein. […]\n(§2) At individual TMT experiment level, the following filters were applied to remove low-quality peptides: removal of non-unique peptides; removal of half-tryptic peptides; removal of peptides with more than one internal miscleaved site; removal of peptides with low (<10,000) sum of reporter ion intensities for control channels, and peptides with high variation between the replicate control channels (coefficient of variance >0.5). R values (compound-treated vs. DMSO-treated) for each peptide entry were calculated using the reporter ion intensities of DMSO and compound treated TMT channels for each treatment group with a maximum ratio cap of 20. […]"}, "[2]": {"molecular_target": "T1, BIRC3 (Homo sapiens, UniProt Q13489, C28A)", "T1 construct": "endogenous in cells; host or cells: primary human T cells", "T1 sequence (Q13489 whole entry C28A)": "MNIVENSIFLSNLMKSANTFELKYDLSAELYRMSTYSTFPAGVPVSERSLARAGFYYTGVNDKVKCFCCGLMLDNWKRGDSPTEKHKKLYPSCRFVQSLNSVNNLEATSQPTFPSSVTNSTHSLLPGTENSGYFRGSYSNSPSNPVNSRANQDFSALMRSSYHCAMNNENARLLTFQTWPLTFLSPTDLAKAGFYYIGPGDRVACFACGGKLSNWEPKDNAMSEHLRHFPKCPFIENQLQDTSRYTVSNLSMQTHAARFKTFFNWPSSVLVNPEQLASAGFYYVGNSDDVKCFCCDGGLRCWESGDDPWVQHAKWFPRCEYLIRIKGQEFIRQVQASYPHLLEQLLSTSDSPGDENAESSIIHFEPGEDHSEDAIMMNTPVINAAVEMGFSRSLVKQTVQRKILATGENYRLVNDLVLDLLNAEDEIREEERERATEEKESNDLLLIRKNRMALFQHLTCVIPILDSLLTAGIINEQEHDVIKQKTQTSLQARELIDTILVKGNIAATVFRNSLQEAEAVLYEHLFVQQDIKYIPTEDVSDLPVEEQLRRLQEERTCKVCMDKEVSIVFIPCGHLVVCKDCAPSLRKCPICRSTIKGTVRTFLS", "experiment": "Western blot of BIRC3 content in human T cells", "format": "cell-based", "settings": "EV-3 10 μM, 24 h; transfected primary human T cells"}, "[3]": {"molecular_target": "T2, NuRD complex members (MBD2, MBD3, GATAD2B) (Homo sapiens, UniProt Q8WXI9)", "T2 construct": "endogenous in cells; host or cells: primary human T cells, 3 h treatment", "T2 sequence (Q8WXI9 whole entry, one chain of several)": "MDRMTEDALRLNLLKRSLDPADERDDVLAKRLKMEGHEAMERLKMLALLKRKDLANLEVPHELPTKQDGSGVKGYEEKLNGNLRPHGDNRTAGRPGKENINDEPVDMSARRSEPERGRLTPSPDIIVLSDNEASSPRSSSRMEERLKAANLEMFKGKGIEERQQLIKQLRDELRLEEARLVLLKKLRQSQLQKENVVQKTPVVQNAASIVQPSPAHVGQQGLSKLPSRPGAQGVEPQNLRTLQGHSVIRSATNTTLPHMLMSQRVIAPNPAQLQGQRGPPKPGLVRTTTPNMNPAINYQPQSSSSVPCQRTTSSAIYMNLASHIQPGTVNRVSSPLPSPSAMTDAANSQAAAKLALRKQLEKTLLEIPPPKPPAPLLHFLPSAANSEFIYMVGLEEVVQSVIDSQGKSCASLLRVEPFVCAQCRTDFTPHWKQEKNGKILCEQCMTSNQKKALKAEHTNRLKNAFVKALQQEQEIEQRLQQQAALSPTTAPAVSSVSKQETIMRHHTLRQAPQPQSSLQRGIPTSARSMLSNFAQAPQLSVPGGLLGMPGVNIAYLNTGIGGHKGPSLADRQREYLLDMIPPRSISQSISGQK", "experiment": "Cysteine reactivity profiles of NuRD complex members in treated T cells", "format": "binding", "experimental": "as §1, §2"}},
  "data": [
    {"smiles": "C=CC(=O)N(Cc1cccc(Cl)n1)c1ccc(C(=O)Nc2ccccc2)nc1", "note": "[BPK-25]", "values": [
      {"measurement": "reduction in C10/11 and C359 in MBD2, C266 in MBD3, and C308 of GATAD2B (cysteine reactivity profiles)", "setting": "[1]", "result": "~50", "unit": "%"}
    ]},
    {"smiles": "O=C(CCl)N1CCN(S(=O)(=O)c2ccc(-c3ccncc3)cc2)CC1", "note": "[EV-3]", "values": [
      {"measurement": "FLAG-tagged BIRC3 C28A mutant content", "setting": "[2]", "result": "but not cysteine mutants"}
    ]},
    {"smiles": "COC(=O)/C=C/C(=O)OC", "note": "[DMF, reference compound]", "values": [
      {"measurement": "apparent reactivity of C308 of GATAD2B", "setting": "[3]", "result": "decreased the apparent reactivity"}
    ]}
  ]
}
